Target: T1, Hormone-sensitive lipase (HSL) (Homo sapiens, UniProt Q05469)
T1 sequence (Q05469 1-1076): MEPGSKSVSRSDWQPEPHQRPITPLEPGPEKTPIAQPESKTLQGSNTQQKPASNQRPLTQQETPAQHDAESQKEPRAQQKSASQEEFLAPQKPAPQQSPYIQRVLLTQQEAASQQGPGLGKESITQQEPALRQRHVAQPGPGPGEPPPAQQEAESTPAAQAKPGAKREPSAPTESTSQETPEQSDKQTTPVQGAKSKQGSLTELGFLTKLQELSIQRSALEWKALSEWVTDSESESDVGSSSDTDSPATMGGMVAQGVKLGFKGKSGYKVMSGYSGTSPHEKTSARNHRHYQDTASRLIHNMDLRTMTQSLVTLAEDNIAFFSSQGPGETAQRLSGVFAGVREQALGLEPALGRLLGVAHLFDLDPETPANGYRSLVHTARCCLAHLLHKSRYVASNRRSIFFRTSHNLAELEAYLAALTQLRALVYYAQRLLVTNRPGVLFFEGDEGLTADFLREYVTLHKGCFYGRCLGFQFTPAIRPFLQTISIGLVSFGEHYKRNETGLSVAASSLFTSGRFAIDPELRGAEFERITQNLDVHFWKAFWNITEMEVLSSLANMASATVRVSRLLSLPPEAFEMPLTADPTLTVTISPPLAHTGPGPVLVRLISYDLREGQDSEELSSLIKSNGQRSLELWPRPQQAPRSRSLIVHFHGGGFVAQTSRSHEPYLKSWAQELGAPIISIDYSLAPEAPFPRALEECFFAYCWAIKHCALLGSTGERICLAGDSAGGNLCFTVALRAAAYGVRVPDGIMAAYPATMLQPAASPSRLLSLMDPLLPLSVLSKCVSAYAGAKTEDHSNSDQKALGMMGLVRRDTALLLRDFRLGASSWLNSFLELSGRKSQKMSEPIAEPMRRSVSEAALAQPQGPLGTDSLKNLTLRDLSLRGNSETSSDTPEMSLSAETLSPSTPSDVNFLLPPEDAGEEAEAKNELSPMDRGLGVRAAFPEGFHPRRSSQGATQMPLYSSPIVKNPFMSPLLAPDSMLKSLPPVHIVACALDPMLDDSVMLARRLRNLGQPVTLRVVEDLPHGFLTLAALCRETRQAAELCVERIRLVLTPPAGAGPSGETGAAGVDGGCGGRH
Assay: selectivity: hormone-sensitive lipase assay
Format: biochemical
Details: 50 µM
Method: Hormone-sensitive lipase (HSL) and lipoprotein lipase (LPL) were measured using a radiolabeled triolein droplet emulsion as described in "Vertesy et al., (2002) Journal Antibiotics 55:480-494". Pancreatic lipase (PL) was determined by incubation of 0.25 mmol tributyrin in 2 ml of 5 mM Tris/HCl (pH 6.5), 6 mM sodium taurodeoxycholate, 150 mM NaCl, 1 mM CaCl2 with porcine PL and colipase in the same buffer using a recording pH stat (stirring at 1000 rpm at 25°C) with the pH adjusted to 6.5. PC-PLC was assayed by incubation of 0.2 ml of 10 mM dipalmitoyllecithin, 0.1 ml of 10 mM SDC and 0.1 ml of 0.03 M CaCl2 with bacterial PC-PLC (in 50 mM Tris/HCl, pH 7.5, 0.1 % BSA) for 10 min at 37°C. The reaction was terminated by addition of 0.1 ml of 50 % TCA and subsequently of 2.5 ml of […]. After centrifugation (1500xg, 15 min), 0.2-ml portions of the upper methanol/water phase (~ 1.33 ml) was removed, supplemented with 0.5 ml of 60 % HClO4, then heated at 170°C for 1 h and finally analyzed for inorganic phosphate. Mammalian PI-PLC was measured by incubation of 0.1 ml of 10 mM PI, 0.1 ml of 0.8 % sodium deoxycholate, 0.1 % BSA, 0.2 ml of 100 mM sodium borate (pH 7.5) and rat liver PI-PLC for 20 min at 37°C. The reaction was terminated and further processed as described for the PC-PLC. […] Radioactive phosphatidic acid was detected by phosphorimaging. […]

Structure (SMILES): CCCCCCCCCCCCP1(=O)O[C@@H]2[C@H](O)[C@@H](O)[C@H](O)[C@@H](O)[C@@H]2O1 (mixture of isomers) [GPI-2350, myo-inositol-1,2-cyclo-dodecylphosphonic acid]
- effect on lipase activity: not significantly affected
